{"source": "ChEMBL document CHEMBL1201862", "about": "“PubChem BioAssay data set” (2004)", "assay_in_all_cases": "growth of human tumour cells (NCI), 48 h", "key": {"[1]": {"tested_on": "HCT-116"}, "[2]": {"tested_on": "EKVX"}, "[3]": {"tested_on": "COLO 205"}, "[4]": {"tested_on": "HL-60"}, "[5]": {"tested_on": "U-251"}, "[6]": {"tested_on": "M14"}, "[7]": {"tested_on": "TK-10"}, "[8]": {"tested_on": "UACC-257"}, "[9]": {"tested_on": "NCI-H23"}, "[10]": {"tested_on": "DMS-273"}, "[11]": {"tested_on": "HOP-18"}, "[12]": {"tested_on": "SR"}, "[13]": {"tested_on": "HOP-62"}, "[14]": {"tested_on": "SK-MEL-5"}, "[15]": {"tested_on": "KM-20L2"}, "[16]": {"tested_on": "SF-539"}, "[17]": {"tested_on": "SF-268"}, "[18]": {"tested_on": "SNB-19"}, "[19]": {"tested_on": "HT-29"}, "[20]": {"tested_on": "SK-MEL-28"}, "[21]": {"tested_on": "SNB-78"}, "[22]": {"tested_on": "A549"}, "[23]": {"tested_on": "DMS-114"}, "[24]": {"tested_on": "SNB-75"}, "[25]": {"tested_on": "RXF 393"}, "[26]": {"tested_on": "CAKI-1"}, "[27]": {"tested_on": "SF-295"}, "[28]": {"tested_on": "HCC 2998"}, "[29]": {"tested_on": "OVCAR-5"}, "[30]": {"tested_on": "LXFL 529"}, "[31]": {"tested_on": "NCI-H522"}, "[32]": {"tested_on": "SK-MEL-2"}, "[33]": {"tested_on": "M19-MEL"}, "[34]": {"tested_on": "LOX IMVI"}, "[35]": {"tested_on": "OVCAR-8"}, "[36]": {"tested_on": "SW-620"}, "[37]": {"tested_on": "SN12C"}, "[38]": {"tested_on": "DLD-1"}, "[39]": {"tested_on": "OVCAR-4"}, "[40]": {"tested_on": "ACHN"}, "[41]": {"tested_on": "NCI-H226"}, "[42]": {"tested_on": "KM12"}, "[43]": {"tested_on": "786-0"}, "[44]": {"tested_on": "NCI-H460"}, "[45]": {"tested_on": "UO-31"}}, "note": "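Exposure lasted 48 hours, with cells grown in 96-well plates and compounds tested at five concentrations. GI50 marks 50% less growth.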 Active and inactive are the calls of the source. Cut-off read from the data, not from the text of the source: active = GI50 up to about 1.1 µM and inactive = higher.", "data": [{"smiles": "C/C=C(\\C)c1cc(O)c(C)c2c1Oc1cc(O)c(Cl)c(C)c1C(=O)O2", "values": [{"measurement": "GI50", "setting": "[1]", "value": "> 10 µM (inactive)"}, {"measurement": "GI50", "setting": "[2]", "value": "26.8 µM (inactive)"}, {"measurement": "GI50", "setting": "[3]", "value": "25.3 µM (inactive)"}, {"measurement": "GI50", "setting": "[4]", "value": "36 µM (inactive)"}, {"measurement": "GI50", "setting": "[5]", "value": "23.4 µM (inactive)"}, {"measurement": "GI50", "setting": "[6]", "value": "20.1 µM (inactive)"}, {"measurement": "GI50", "setting": "[7]", "value": "16.2 µM (inactive)"}, {"measurement": "GI50", "setting": "[8]", "value": "21.5 µM (inactive)"}, {"measurement": "GI50", "setting": "[9]", "value": "18.9 µM (inactive)"}, {"measurement": "GI50", "setting": "[10]", "value": "34.1 µM (inactive)"}, {"measurement": "GI50", "setting": "[11]", "value": "< 0.01 µM (active)"}, {"measurement": "GI50", "setting": "[12]", "value": "23.8 µM (inactive)"}, {"measurement": "GI50", "setting": "[13]", "value": "27.7 µM (inactive)"}, {"measurement": "GI50", "setting": "[14]", "value": "13.9 µM (inactive)"}, {"measurement": "GI50", "setting": "[15]", "value": "20.7 µM (inactive)"}, {"measurement": "GI50", "setting": "[16]", "value": "20 µM (inactive)"}, {"measurement": "GI50", "setting": "[17]", "value": "30.5 µM (inactive)"}, {"measurement": "GI50", "setting": "[18]", "value": "17.3 µM (inactive)"}, {"measurement": "GI50", "setting": "[19]", "value": "19.2 µM (inactive)"}, {"measurement": "GI50", "setting": "[20]", "value": "22.4 µM (inactive)"}, {"measurement": "GI50", "setting": "[21]", "value": "29.1 µM (inactive)"}, {"measurement": "GI50", "setting": "[22]", "value": "31.6 µM (inactive)"}, {"measurement": "GI50", "setting": "[23]", "value": "29.6 µM (inactive)"}, {"measurement": "GI50", "setting": "[24]", "value": "19.6 µM (inactive)"}, {"measurement": "GI50", "setting": "[25]", "value": "18.8 µM (inactive)"}, {"measurement": "GI50", "setting": "[26]", "value": "27.4 µM (inactive)"}, {"measurement": "GI50", "setting": "[27]", "value": "16.7 µM (inactive)"}, {"measurement": "GI50", "setting": "[28]", "value": "13 µM (inactive)"}, {"measurement": "GI50", "setting": "[29]", "value": "16.6 µM (inactive)"}, {"measurement": "GI50", "setting": "[30]", "value": "24.8 µM (inactive)"}, {"measurement": "GI50", "setting": "[31]", "value": "19.4 µM (inactive)"}, {"measurement": "GI50", "setting": "[32]", "value": "21.5 µM (inactive)"}, {"measurement": "GI50", "setting": "[33]", "value": "34 µM (inactive)"}, {"measurement": "GI50", "setting": "[34]", "value": "17.6 µM (inactive)"}, {"measurement": "GI50", "setting": "[35]", "value": "21.4 µM (inactive)"}, {"measurement": "GI50", "setting": "[36]", "value": "19.6 µM (inactive)"}, {"measurement": "GI50", "setting": "[37]", "value": "16.6 µM (inactive)"}, {"measurement": "GI50", "setting": "[38]", "value": "17.4 µM (inactive)"}, {"measurement": "GI50", "setting": "[39]", "value": "16.7 µM (inactive)"}, {"measurement": "GI50", "setting": "[40]", "value": "22.2 µM (inactive)"}, {"measurement": "GI50", "setting": "[41]", "value": "18.5 µM (inactive)"}, {"measurement": "GI50", "setting": "[42]", "value": "20.9 µM (inactive)"}, {"measurement": "GI50", "setting": "[43]", "value": "25.6 µM (inactive)"}, {"measurement": "GI50", "setting": "[44]", "value": "20 µM (inactive)"}, {"measurement": "GI50", "setting": "[45]", "value": "13.5 µM (inactive)"}]}]}
